Reference: patent US10765625B2, “Knottin-drug conjugates and methods of using the same” (THE BOARD OF TRUSTEES OF THE LELAND STANFORD JUNIOR …, priority 2016, dated 2020)

Experiments:
Format in all cases: cell-based
U87MG cells = assay: Integrin-blocking competition: cell proliferation (CCK-8) after pre-treatment with EETI-2.5F (1); conditions: 1 μM 1, 3 h pre-treatment and co-treatment
Method: (§1) U87MG, and PANC-1 cells were grown in Dulbecco's Modified Eagle Medium (DMEM) with 10% fetal bovine serum (FBS) and 1% penicillin/streptomycin. MDA-MB-468 cells were grown in DMEM and Ham's F-12 medium (DMEM/F12) with 10% FBS and 1% penicillin/streptomycin. A2780 and BxPC3 cells were grown in Roswell Park Memorial Institute medium (RPMI) 1640+L-glutamine, with 10% FBS and 1% penicillin/streptomycin. D270 cells were grown in MEM (Richter's modification, no phenol red) with 10% FBS and 0.1% Gentamicin. Unless otherwise specified, cells were incubated at 37° C., 5% CO2. Flow cytometry was performed using an EMD Millpore Guava EasyCyte 8HT flow cytometer and the resulting data were evaluated using FlowJo software provided by TreeStar, Inc. Cell proliferation was measured using the Dojindo Cell Counting Kit-8 by replacing the media in each well with 100 μL of media containing 10% WST-8. After incubation for 1 h at 37° C., absorbance, A, at 450 nm was measured with a BioTek Synergy H4 microtiter plate reader. The background signal of CCK-8 alone was subtracted from all samples. Cell proliferation was then expressed as a percentage of absorbance relative to the control of untreated cells (Equation 2). Nonlinear regression analysis was performed using GraphPad Prism.
One possible explanation for the apparent hENT1-independence of 5d is that its route of internalization could be integrin-mediated. The role of integrin-binding in the biological potency and hENT1-independence of 5d was determined. A competition experiment was carried out in which U87MG cells were pre-treated with unconjugated EETI-2.5F (1) in order to block integrins on the cell surface. The role of integrin-binding was studied by measuring the proliferation of U87MG cells that had been pre-treated with EETI-2.5F (1) when exposed to increasing doses of 3 and KDCs 5a, 5c, and 5d. […] Media used to prepare varying concentrations of drug, protein, or protein-drug conjugate also contained 1 μM of 1. Prior to treatment, cells were incubated for 3 h at 37° C., 5% CO2 with fresh media containing 1 μM 1. After this pre-treatment, cells were incubated with varying concentrations of 5a, 5c, or 5d for 24 h and then media was replaced with fresh media and cells were incubated for an additional 48 h. Cell proliferation was measured using the Cell Counting Kit-8 by replacing the media in each well with 100 μL of media containing 10% WST-8. After incubation for 1 h at 37° C., absorbance at 450 nm was measured with a Synergy H4 microtiter plate reader. Cell proliferation was measured according to the method described in Section 1.3. Error bars represent the standard deviation of experiments performed in triplicate.

[1] = tested on: MDA-MB-468 breast cancer cells; assay: Cell proliferation, CCK-8 colorimetric assay; conditions: 4 d after treatment, read-out: ED50 (nM), cell growth inhibition
Method: as §1
(§2) Having identified KDC 5d as a potent inhibitor of U87MG cells with desirable payload-release properties, its efficacy against a variety of other cell lines in comparison with Gemcitabine (3) was next tested. Cells were seeded in a 96-well plate at a density of 2,500 cells per well and grown overnight at 37° C., 5% CO2 in the media described in Section 1.3. Cells were subsequently treated with 100 μL of fresh media, containing 50 nM of 3 or 5d. Cells were incubated at 37° C., 5% CO2 for 4 d. Cell proliferation was measured using the Cell Counting Kit-8 by replacing the media in each well with 100 μL of media containing 10% WST-8. After incubation for 1 h at 37° C., absorbance at 450 nm was measured with a Synergy H4 microtiter plate reader. Cell proliferation was measured according to the method described in Section 1.3. Error bars represent the standard deviation of experiments performed in triplicate.

[2] = tested on: A2780 ovarian cancer cells; assay: Cell proliferation, CCK-8 colorimetric assay; conditions: 4 d after treatment, read-out: ED50 (nM), cell growth inhibition
Method: as §1, §2

[3] = tested on: BxPC3 pancreatic cancer cells; assay: Cell proliferation, CCK-8 colorimetric assay; conditions: 4 d after treatment, read-out: ED50 (nM), cell growth inhibition
Method: as §1, §2

[4] = tested on: PANC-1 pancreatic cancer cells; assay: Cell proliferation, CCK-8 colorimetric assay; conditions: 4 d after treatment, read-out: ED50 (nM), cell growth inhibition
Method: as §1, §2

D270 glioblastoma cells = assay: Cell proliferation, CCK-8 colorimetric assay; conditions: 4 d after treatment, read-out: ED50 (nM), cell growth inhibition
Method: as §1, §2

CC(C)C[C@@H]1NC(=O)[C@@H]2CSSC[C@@H](C(=O)NCC(=O)O)NC(=O)[C@H](Cc3ccccc3)NC(=O)CNC(=O)[C@H](CC(N)=O)NC(=O)[C@@H]3CCCN3C(=O)CNC(=O)[C@@H]3CSSC[C@H](NC(=O)[C@H]([C@@H](C)O)NC(=O)[C@H](CC(C)C)NC(=O)[C@@H]4CCCN4C(=O)[C@@H]4CCCN4C(=O)[C@H](CC(N)=O)NC(=O)[C@H](CC(=O)O)NC(=O)CNC(=O)[C@H](CCCNC(=N)N)NC(=O)[C@@H]4CCCN4C(=O)[C@H](CCCNC(=N)N)NC(=O)[C@@H]4CCCN4C(=O)[C@@H](NC(=O)CN)CSSC[C@H](NC(=O)CNC(=O)[C@H](C)NC1=O)C(=O)N[C@@H](C(C)C)C(=O)N3)C(=O)N[C@@H](CCCn1cc(CCC(=O)N[C@H](C(=O)N[C@@H](C)C(=O)Nc3ccc(COC(=O)Nc4ccn([C@@H]5O[C@H](CO)[C@@H](O)C5(F)F)c(=O)n4)cc3)C(C)C)nn1)C(=O)N[C@@H](CCC(N)=O)C(=O)N[C@@H](CC(=O)O)C(=O)N[C@@H](CO)C(=O)N[C@@H](CC(=O)O)C(=O)N2 [5d]
Effect of integrin blocking by pre-treatment with 1 on potency (in words) (U87MG cells): abolishes the potency
EC50 [1]: 0.6 ± 0.1 nM
EC50 [2]: 2.3 ± 0.5 nM
EC50 [3]: 1.8 ± 0.8 nM
EC50 [4]: 2.1 ± 0.2 nM
EC50 (D270 glioblastoma cells): 7.9 ± 0.8 nM
